Experimental data from patent US20050202973A1, “Aryl-alkyne compounds as herbicides” (priority 2002, published 2005).

Legend:
Assay type in all cases: in vivo
Stellaria (Stell) [1] = test: Pre-emergence herbicidal action (Example B1); parameters: key: 1=total damage; 9=no action; Ratings of from 1 to 4 (especially from 1 to 3) indicate good to very good herbicidal action; conditions: 1000 g of active compound per ha; sprayed immediately after sowing; evaluated after 4 weeks; scale of nine ratings (1=total damage, 9=no action)
Experimental: (§1) Monocotyledonous and dicotyledonous test plants are sown in standard soil in pots. Immediately after sowing, the test compounds, in the form of an aqueous suspension (prepared from a wettable powder (Example F3, b) according to WO 97/34485) or in the form of an emulsion (prepared from an emulsifiable concentrate (Example F1, c) according to WO 97/34485), are applied by spraying, in an optimum concentration (500 litres of water per ha). The test plants are then grown in a greenhouse under optimum conditions. After a test duration of 4 weeks, the test is evaluated in accordance with a scale of nine ratings (1=total damage, 9=no action). Ratings of from 1 to 4 (especially from 1 to 3) indicate good to very good herbicidal action. Test plants: Panicum (Pani), Digitaria (Digit), Euphorbia (Euph), Sida, Abutilon (Abut), Amaranthus (Amar), Chenopodium (Cheno), Stellaria (Stell).

Chenopodium (Cheno) = test: Pre-emergence herbicidal action (Example B1); parameters: key: 1=total damage; 9=no action; Ratings of from 1 to 4 (especially from 1 to 3) indicate good to very good herbicidal action; conditions: 1000 g of active compound per ha; sprayed immediately after sowing; evaluated after 4 weeks; scale of nine ratings (1=total damage, 9=no action)
Experimental: as §1

Panicum (Pani) [2] = test: Pre-emergence herbicidal action (Example B1); parameters: key: 1=total damage; 9=no action; Ratings of from 1 to 4 (especially from 1 to 3) indicate good to very good herbicidal action; conditions: 1000 g of active compound per ha; sprayed immediately after sowing; evaluated after 4 weeks; scale of nine ratings (1=total damage, 9=no action)
Experimental: as §1

Amaranthus (Amar) = test: Pre-emergence herbicidal action (Example B1); parameters: key: 1=total damage; 9=no action; Ratings of from 1 to 4 (especially from 1 to 3) indicate good to very good herbicidal action; conditions: 1000 g of active compound per ha; sprayed immediately after sowing; evaluated after 4 weeks; scale of nine ratings (1=total damage, 9=no action)
Experimental: as §1

Euphorbia (Euph) [3] = test: Pre-emergence herbicidal action (Example B1); parameters: key: 1=total damage; 9=no action; Ratings of from 1 to 4 (especially from 1 to 3) indicate good to very good herbicidal action; conditions: 1000 g of active compound per ha; sprayed immediately after sowing; evaluated after 4 weeks; scale of nine ratings (1=total damage, 9=no action)
Experimental: as §1

Sida = test: Pre-emergence herbicidal action (Example B1); parameters: key: 1=total damage; 9=no action; Ratings of from 1 to 4 (especially from 1 to 3) indicate good to very good herbicidal action; conditions: 1000 g of active compound per ha; sprayed immediately after sowing; evaluated after 4 weeks; scale of nine ratings (1=total damage, 9=no action)
Experimental: as §1

Abutilon (Abut) [4] = test: Pre-emergence herbicidal action (Example B1); parameters: key: 1=total damage; 9=no action; Ratings of from 1 to 4 (especially from 1 to 3) indicate good to very good herbicidal action; conditions: 1000 g of active compound per ha; sprayed immediately after sowing; evaluated after 4 weeks; scale of nine ratings (1=total damage, 9=no action)
Experimental: as §1

Digitaria (Digit) = test: Pre-emergence herbicidal action (Example B1); parameters: key: 1=total damage; 9=no action; Ratings of from 1 to 4 (especially from 1 to 3) indicate good to very good herbicidal action; conditions: 1000 g of active compound per ha; sprayed immediately after sowing; evaluated after 4 weeks; scale of nine ratings (1=total damage, 9=no action)
Experimental: as §1

Veronica (Vero) = test: Post-emergence herbicidal action (Example B2); parameters: key: 1-9 scale: 1 = total damage, 9 = no action; conditions: 1000 g of active compound per ha; post-emergence spray at 2- to 3-leaf stage; evaluated after 2 to 3 weeks; scale 1=total damage, 9=no action
Experimental: (§2) Monocotyledonous and dicotyledonous test plants are sown in standard soil in pots. When the test plants are at the 2- to 3-leaf stage, the test compounds, in the form of an aqueous suspension (prepared from a wettable powder (Example F3, b) according to WO 97/34485) or in the form of an emulsion (prepared from an emulsifiable concentrate (Example F1, c) according to WO 97/34485), are applied by spraying, in an optimum concentration (500 litres of water per ha). The test plants are then grown on in a greenhouse under optimum conditions. After a test duration of 2 to 3 weeks, the test is evaluated in accordance with a scale of nine ratings (1=total damage, 9=no action). Ratings of from 1 to 4 (especially from 1 to 3) indicate good to very good herbicidal action. Test plants. Panicum (Pani), Euphorbia (Euph), Abutilon (Abut), Amaranthus (Amara), Stellaria (Stell), Veronica (Vero).

Amaranthus (Amara) = test: Post-emergence herbicidal action (Example B2); parameters: key: 1=total damage; 9=no action; Ratings of from 1 to 4 (especially from 1 to 3) indicate good to very good herbicidal action; conditions: 1000 g of active compound per ha; post-emergence spray at 2- to 3-leaf stage; evaluated after 2 to 3 weeks; scale 1=total damage, 9=no action
Experimental: as §2

Stellaria (Stell) [5] = test: Post-emergence herbicidal action (Example B2); parameters: key: 1=total damage; 9=no action; Ratings of from 1 to 4 (especially from 1 to 3) indicate good to very good herbicidal action; conditions: 1000 g of active compound per ha; post-emergence spray at 2- to 3-leaf stage; evaluated after 2 to 3 weeks; scale 1=total damage, 9=no action
Experimental: as §2

Panicum (Pani) [6] = test: Post-emergence herbicidal action (Example B2); parameters: key: 1=total damage; 9=no action; Ratings of from 1 to 4 (especially from 1 to 3) indicate good to very good herbicidal action; conditions: 1000 g of active compound per ha; post-emergence spray at 2- to 3-leaf stage; evaluated after 2 to 3 weeks; scale 1=total damage, 9=no action
Experimental: as §2

Euphorbia (Euph) [7] = test: Post-emergence herbicidal action (Example B2); parameters: key: 1=total damage; 9=no action; Ratings of from 1 to 4 (especially from 1 to 3) indicate good to very good herbicidal action; conditions: 1000 g of active compound per ha; post-emergence spray at 2- to 3-leaf stage; evaluated after 2 to 3 weeks; scale 1=total damage, 9=no action
Experimental: as §2

Abutilon (Abut) [8] = test: Post-emergence herbicidal action (Example B2); parameters: key: 1=total damage; 9=no action; Ratings of from 1 to 4 (especially from 1 to 3) indicate good to very good herbicidal action; conditions: 1000 g of active compound per ha; post-emergence spray at 2- to 3-leaf stage; evaluated after 2 to 3 weeks; scale 1=total damage, 9=no action
Experimental: as §2

SMILES | Pre-emergence herbicidal action rating, Stell (Stellaria (Stell) [1]) | Pre-emergence herbicidal action rating, Cheno (Chenopodium (Cheno)) | Pre-emergence herbicidal action rating, Pani (Panicum (Pani) [2]) | Pre-emergence herbicidal action rating, Amar (Amaranthus (Amar)) | Pre-emergence herbicidal action rating, Euph (Euphorbia (Euph) [3]) | Pre-emergence herbicidal action rating, Sida (Sida) | Pre-emergence herbicidal action rating, Abut (Abutilon (Abut) [4]) | Pre-emergence herbicidal action rating, Digit (Digitaria (Digit)) | Post-emergence herbicidal action rating, Vero (Veronica (Vero)) | Post-emergence herbicidal action rating, Amar (Amaranthus (Amara)) | Post-emergence herbicidal action rating, Stell (Stellaria (Stell) [5]) | Post-emergence herbicidal action rating, Pani (Panicum (Pani) [6]) | Post-emergence herbicidal action rating, Euph (Euphorbia (Euph) [7]) | Post-emergence herbicidal action rating, Abut (Abutilon (Abut) [8])
N#CCc1cc(C#CCOc2ncc(Cl)cn2)ccc1F [Compound 7.022] | 1 | 3 | 1 | 1 | 3 | 1 | 1 | 1 | 2 | 1 | 3 | 2 | 1 | 
N#CCc1cccc(C#CCOc2ncc(F)cn2)c1 [7.008] |  |  |  |  |  |  |  |  | 2 | 2 | 2 | 2 | 2 | 2
COc1nc(Cl)cnc1OCC#Cc1cccc(CC#N)c1 [Compound 1.041, {3-[3-(5-chloro-3-methoxy-pyrazin-2-yloxy)-prop-1-ynyl]-phenyl}-acetonitrile] | 1 | 1 | 1 | 1 | 1 | 1 | 1 | 1 | 2 | 2 | 2 | 2 | 1 | 2
COc1nccnc1OCC#Cc1cccc(CC#N)c1 [Compound 1.048] | 1 | 1 | 4 | 1 | 1 | 1 | 1 | 2 | 2 | 1 | 2 | 4 | 1 | 3
COc1cncnc1OCC#Cc1cccc(CC#N)c1 [Compound 5.025, {3-[3-(5-methoxy-pyrimidin-4-yloxy)-prop-1-ynyl]-phenyl}-acetonitrile] |  |  |  |  |  |  |  |  | 4 | 4 | 1 | 2 | 1 | 1
N#CCc1ccc(F)c(C#CCOc2ncc(Cl)cn2)c1 [7.028] |  |  |  |  |  |  |  |  | 2 | 1 | 1 |  | 1 | 
N#CCc1cccc(C#CCOc2ncc(Br)cn2)c1 [Compound 7.006] | 1 | 1 | 2 |  | 1 |  | 2 |  | 5 | 2 | 4 | 5 | 1 | 3
N#CCc1cc(C#CCOc2ncc(F)cn2)ccc1F [7.027] |  |  |  |  |  |  |  |  | 4 | 2 | 3 | 1 | 2 | 4
COc1nc(C)ncc1OCC#Cc1cccc(CC#N)c1 [4.033] |  |  |  |  |  |  |  |  | 4 | 3 | 2 | 2 | 2 | 3
N#CCc1cc(C#CCOc2ncc(Cl)cn2)c(F)cc1F [7.031] |  |  |  |  |  |  |  |  | 2 | 2 | 3 | 2 | 3 | 3
N#CCc1cccc(C#CCOc2ncc(Cl)cn2)c1 [7.021] |  |  |  |  |  |  |  |  | 3 | 1 | 3 | 2 | 1 | 2
